US20230172206A1 (BASF SE, priority 2020, published 2023)

system: Phakopsora pachyrhizi (F129L); test: Protective control of soybean rust on soybeans (PHAKPA P2); assay type: in vivo; conditions: protective P2, 4 ppm, F129L isolate

`CO/C=C(/C(=O)OC)c1cccc(C)c1CO/N=C(\C)c1c(Cl)ccc(F)c1OC(F)(F)F` [compound 442] and `CO/C=C(/C(=O)OC)c1cccc(C)c1CO/N=C(\C)c1c(Cl)ccc(Cl)c1OC(F)(F)F` [compound 444] are the same in “% PHAKPA (F129L) Disease level P2 at 4 ppm” value: 100% for the first, 100% for the second.

Compared with `CO/C=C(/C(=O)OC)c1cccc(C)c1CO/N=C(\C)c1ccc(Br)cc1C(F)(F)F` [compound 445], `CO/C=C(/C(=O)OC)c1cccc(C)c1CO/N=C(\C)c1ccc(C)cc1C(F)(F)F` [compound 446] is lower in “% PHAKPA (F129L) Disease level P2 at 4 ppm” value: 15% for the first, 2% for the second.

Compared with `CO/N=C(/C(=O)OC)c1cccc(C)c1CO/N=C(\C)c1ccc(F)c(F)c1OC(F)(F)F` [compound 447], `CNC(=O)/C(=N/OC)c1cccc(C)c1CO/N=C(\C)c1ccc(F)c(F)c1OC(F)(F)F` [compound 451] is lower in “% PHAKPA (F129L) Disease level P2 at 4 ppm” value: 7% for the first, 1% for the second.

First: CNC(=O)/C(=N/OC)c1cccc(C)c1CO/N=C(\C)c1ccc(Cl)c(F)c1OC(F)(F)F [compound 449]
Second: CO/C=C(/C(=O)OC)c1cccc(C)c1CO/N=C(\C)c1ccc(Cl)c(F)c1OC(F)(F)F [compound 452]
The “% PHAKPA (F129L) Disease level P2 at 4 ppm” value of the first is lower: 33% for the first, 60% for the second.

For `CO/C=C(/C(=O)OC)c1cccc(C)c1CO/N=C(\C)c1ccc(F)c(F)c1OC(F)(F)F` [compound 450], the “% PHAKPA (F129L) Disease level P2 at 4 ppm” value was 3%.

same assay, conditions: protective P2, 16 ppm, F129L isolate

First: CO/C=C(/C(=O)OC)c1cccc(C)c1CO/N=C(\C)c1c(Cl)ccc(F)c1OC(F)(F)F [compound 442]
Second: CO/C=C(/C(=O)OC)c1cccc(C)c1CO/N=C(\C)c1c(Cl)ccc(Cl)c1OC(F)(F)F [compound 444]
The “% PHAKPA (F129L) Disease level P2 at 16 ppm” value of the first is higher: 93% for the first, 47% for the second.

Compared with `CO/C=C(/C(=O)OC)c1cccc(C)c1CO/N=C(\C)c1ccc(Br)cc1C(F)(F)F` [compound 445], `CO/C=C(/C(=O)OC)c1cccc(C)c1CO/N=C(\C)c1ccc(C)cc1C(F)(F)F` [compound 446] is lower in “% PHAKPA (F129L) Disease level P2 at 16 ppm” value: 1% for the first, 0% for the second.

`CO/N=C(/C(=O)OC)c1cccc(C)c1CO/N=C(\C)c1ccc(F)c(F)c1OC(F)(F)F` [compound 447] and `CNC(=O)/C(=N/OC)c1cccc(C)c1CO/N=C(\C)c1ccc(F)c(F)c1OC(F)(F)F` [compound 451] are the same in “% PHAKPA (F129L) Disease level P2 at 16 ppm” value: 0% for the first, 0% for the second.

First: CNC(=O)/C(=N/OC)c1cccc(C)c1CO/N=C(\C)c1ccc(Cl)c(F)c1OC(F)(F)F [compound 449]
Second: CO/C=C(/C(=O)OC)c1cccc(C)c1CO/N=C(\C)c1ccc(Cl)c(F)c1OC(F)(F)F [compound 452]
The “% PHAKPA (F129L) Disease level P2 at 16 ppm” value of the first is higher: 10% for the first, 6% for the second.

For `CO/C=C(/C(=O)OC)c1cccc(C)c1CO/N=C(\C)c1ccc(F)c(F)c1OC(F)(F)F` [compound 450], the “% PHAKPA (F129L) Disease level P2 at 16 ppm” value was 1%.

system: Phakopsora pachyrhizi (F129L); test: Protective control of soybean rust on soybeans (PHAKPA P6); assay type: in vivo; conditions: protective P6, 4 ppm, F129L isolate

Compared with `CO/C=C(/C(=O)OC)c1cccc(C)c1CO/N=C(\C)c1c(Cl)ccc(F)c1OC(F)(F)F` [compound 442], `CO/C=C(/C(=O)OC)c1cccc(C)c1CO/N=C(\C)c1c(Cl)ccc(Cl)c1OC(F)(F)F` [compound 444] is higher in “% PHAKPA (F129L) Disease level P6 at 4 ppm” value: 80% for the first, 83% for the second.

Compared with `CO/C=C(/C(=O)OC)c1cccc(C)c1CO/N=C(\C)c1ccc(Br)cc1C(F)(F)F` [compound 445], `CO/C=C(/C(=O)OC)c1cccc(C)c1CO/N=C(\C)c1ccc(C)cc1C(F)(F)F` [compound 446] is lower in “% PHAKPA (F129L) Disease level P6 at 4 ppm” value: 30% for the first, 6% for the second.

Going from `CO/N=C(/C(=O)OC)c1cccc(C)c1CO/N=C(\C)c1ccc(F)c(F)c1OC(F)(F)F` [compound 447] to `CNC(=O)/C(=N/OC)c1cccc(C)c1CO/N=C(\C)c1ccc(F)c(F)c1OC(F)(F)F` [compound 451], the “% PHAKPA (F129L) Disease level P6 at 4 ppm” value falls from 33% to 2%.

First: CNC(=O)/C(=N/OC)c1cccc(C)c1CO/N=C(\C)c1ccc(Cl)c(F)c1OC(F)(F)F [compound 449]
Second: CO/C=C(/C(=O)OC)c1cccc(C)c1CO/N=C(\C)c1ccc(Cl)c(F)c1OC(F)(F)F [compound 452]
The “% PHAKPA (F129L) Disease level P6 at 4 ppm” value of the first is lower: 57% for the first, 70% for the second.

`CO/C=C(/C(=O)OC)c1cccc(C)c1CO/N=C(\C)c1ccc(F)c(F)c1OC(F)(F)F` [compound 450] was tested, and the “% PHAKPA (F129L) Disease level P6 at 4 ppm” value was 4%.

same assay, conditions: protective P6, 16 ppm, F129L isolate

Compared with `CO/C=C(/C(=O)OC)c1cccc(C)c1CO/N=C(\C)c1c(Cl)ccc(F)c1OC(F)(F)F` [compound 442], `CO/C=C(/C(=O)OC)c1cccc(C)c1CO/N=C(\C)c1c(Cl)ccc(Cl)c1OC(F)(F)F` [compound 444] is lower in “% PHAKPA (F129L) Disease level P6 at 16 ppm” value: 77% for the first, 53% for the second.

Going from `CO/C=C(/C(=O)OC)c1cccc(C)c1CO/N=C(\C)c1ccc(Br)cc1C(F)(F)F` [compound 445] to `CO/C=C(/C(=O)OC)c1cccc(C)c1CO/N=C(\C)c1ccc(C)cc1C(F)(F)F` [compound 446], the “% PHAKPA (F129L) Disease level P6 at 16 ppm” value falls from 2% to 0%.

Going from `CO/N=C(/C(=O)OC)c1cccc(C)c1CO/N=C(\C)c1ccc(F)c(F)c1OC(F)(F)F` [compound 447] to `CNC(=O)/C(=N/OC)c1cccc(C)c1CO/N=C(\C)c1ccc(F)c(F)c1OC(F)(F)F` [compound 451], the “% PHAKPA (F129L) Disease level P6 at 16 ppm” value falls from 1% to 0%.

Compared with `CNC(=O)/C(=N/OC)c1cccc(C)c1CO/N=C(\C)c1ccc(Cl)c(F)c1OC(F)(F)F` [compound 449], `CO/C=C(/C(=O)OC)c1cccc(C)c1CO/N=C(\C)c1ccc(Cl)c(F)c1OC(F)(F)F` [compound 452] is higher in “% PHAKPA (F129L) Disease level P6 at 16 ppm” value: 9% for the first, 14% for the second.

For `CO/C=C(/C(=O)OC)c1cccc(C)c1CO/N=C(\C)c1ccc(F)c(F)c1OC(F)(F)F` [compound 450], the “% PHAKPA (F129L) Disease level P6 at 16 ppm” value was 1%.
